Series [1] in a line: Aqueous solubility assay in Normal Ringer Solution. To be noted: Normal Ringer Solution; for Solubility Ringer (nM): room temperature; for solubility at 40 min: saline or isotonic, kinetic from dmso stock. How it is done:
Following vortex and incubation for a sufficient time (e.g. 40 minutes at room temperature), solutions were filtered, quenched with acetonitrile, and analyzed by Liquid Chromotography. Solubility Limits were determined by comparison to a standard curve.

Series [2] addresses T1, hTRPV3 (Homo sapiens (Human), UniProt Q8NET8). The series is described as follows: Whole-cell patch clamp, hTRPV3 Phase 1 / Phase 2 currents. Format: cell-based. To be noted: for pIC50: inward, whole-cell patch clamp. The gist of the method: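 Whole-cell recordings on induced TRPV3 cells replated on coverslips, held at −40 mV with 400 ms ramps from −120 to +100 mV every 5 s; currents read at −80 and +80 mV. Ringer's external solution; current activated by heating to ≥28 °C or 20 μM 2-APB.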

The target in series [3] is T1, hTRPV3. The series is described as follows: hTRPV3 HAMA IC50 assay (Hamamatsu FDSS6000 calcium flux, TRex-293 cells). On the technique in general: A change in cytosolic calcium serves as a functional read-out for many receptors and channels.
Method: IC50s were calculated using CBIS from ChemInnovation (San Diego).
Setting [4] is: Phase 1 current, read-out: hTRPV3 Patch P1 Inwd.
[5] abbreviates: Phase 1 current, read-out: hTRPV3 (nM) (Phase 1).
[6] abbreviates: Phase 2 current, read-out: hTRPV3 Patch P2 Inwd.
Setting [7] is: Phase 2 current, read-out: hTRPV3 (nM) (Phase 2).

pIC50: −log10 of the molar value. Values after ≈ are worked out from the molar mass of the structure shown. Like-named read-outs stand apart in the source and are kept apart here. Some results are limits rather than exact numbers.

T1 sequence (Q8NET8 whole entry): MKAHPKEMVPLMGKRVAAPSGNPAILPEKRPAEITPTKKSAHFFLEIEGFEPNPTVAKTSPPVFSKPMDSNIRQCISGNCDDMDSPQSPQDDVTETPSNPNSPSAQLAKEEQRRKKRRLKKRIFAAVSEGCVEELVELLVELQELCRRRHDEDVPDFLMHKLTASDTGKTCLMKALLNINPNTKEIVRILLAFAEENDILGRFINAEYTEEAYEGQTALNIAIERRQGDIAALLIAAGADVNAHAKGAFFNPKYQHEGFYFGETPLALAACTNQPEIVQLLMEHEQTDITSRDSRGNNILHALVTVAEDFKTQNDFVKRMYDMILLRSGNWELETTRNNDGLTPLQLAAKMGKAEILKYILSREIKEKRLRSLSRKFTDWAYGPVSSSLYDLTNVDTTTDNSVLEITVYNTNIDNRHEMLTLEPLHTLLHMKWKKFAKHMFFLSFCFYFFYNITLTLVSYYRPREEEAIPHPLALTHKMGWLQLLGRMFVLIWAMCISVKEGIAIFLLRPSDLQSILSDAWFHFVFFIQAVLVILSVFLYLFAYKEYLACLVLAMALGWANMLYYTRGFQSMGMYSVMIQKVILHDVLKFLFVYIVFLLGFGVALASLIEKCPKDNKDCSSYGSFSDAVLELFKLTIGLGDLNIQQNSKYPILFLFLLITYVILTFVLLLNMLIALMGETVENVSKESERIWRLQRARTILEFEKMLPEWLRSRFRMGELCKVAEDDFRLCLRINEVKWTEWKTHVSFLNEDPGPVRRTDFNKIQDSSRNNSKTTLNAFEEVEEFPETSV

As to `N#Cc1cc(C(F)(F)F)ccc1N1CC[C@H](Oc2ccc(C(F)(F)F)cn2)C1` [Compound 1-57], the “Solubility Ringer (nM)” value in series [1] is given as “BLQ”. Also, the pIC50 in series [2] (setting [4]) and in series [2] (setting [6]) was 6.00 to 7.00 each time. In addition, the IC50 in series [2] (setting [5]) turned out to be 706 nM; in series [2] (setting [7]), 219 nM. The “hTRPV3 HAMA IC50 (nM) (5 min)” value in series [3] is listed as “no fit (5 min)”.
In the case of `NC(=O)c1cc(-c2ccccc2Cl)ccc1N1CC[C@H](Oc2ccc(C(F)(F)F)cn2)C1` [Compound 1-64, (S)-2′-chloro-4-(3-(5-(trifluoromethyl)pyridin-2-yloxy)pyrrolidin-1-yl)biphenyl-3-carboxamide], the “Solubility Ringer (nM)” value in series [1] was “BLQ”. For the same compound, the pIC50 in series [2] (setting [4]) and in series [2] (setting [6]) was 6.00 to 7.00 each time. Further, the IC50 in series [2] (setting [5]) stood at 145 nM; in series [2] (setting [7]) it was 160 nM. Also, in series [3], the “hTRPV3 HAMA IC50 (nM) (5 min)” value is given as “no fit (5 min)”.
Take `O=[N+]([O-])c1cc(-c2ccccc2)ccc1N1CC[C@H](Oc2ccc(C(F)(F)F)cn2)C1` [Compound 1-66, (S)-2-(1-(3-nitrobiphenyl-4-yl)pyrrolidin-3-yloxy)-5-(trifluoromethyl)pyridine]: the “Solubility Ringer (nM)” value in series [1] is on record as “BLQ”. Moreover, the “hTRPV3 (nM) (Phase 1)” value in series [2] is on record as “Incomplete Block (Phase 1)”. For the same compound, the “hTRPV3 HAMA IC50 (nM) (5 min)” value in series [3] is “no fit (5 min)”.
For `NC(=O)c1cc(-c2ccccc2)ccc1N1CC[C@H](Oc2ccc3cc(Cl)ccc3n2)C1` [Compound 1-67, (S)-4-(3-(6-chloroquinolin-2-yloxy)pyrrolidin-1-yl)biphenyl-3-carboxamide], in series [1], the “Solubility Ringer (nM)” value is recorded as “BLQ”. Further, the pIC50 in series [2] (setting [4]) was below 6.00; in series [2] (setting [6]), 6.00 to 7.00. Also, the IC50 in series [2] (setting [5]) was determined as 1270 nM; in series [2] (setting [7]), 585 nM. Besides, the “hTRPV3 HAMA IC50 (nM) (5 min)” value in series [3] is reported as “no fit (5 min)”.
On to `Cc1ccccc1-c1ccc(N2CC[C@H](Oc3ccc(C(F)(F)F)cn3)C2)c(CO)c1` [Compound 1-128, (S)-(2′-methyl-4-(3-(5-(trifluoromethyl)pyridin-2-yloxy)pyrrolidin-1-yl)biphenyl-3-yl)methanol], for which the “Solubility Ringer (nM)” value in series [1] is recorded as “BLQ”. The pIC50 in series [2] (setting [4]) was 6.00 to 7.00. Moreover, the IC50 in series [2] (setting [5]) was found to be 114 nM. Also, the “hTRPV3 HAMA IC50 (nM) (5 min)” value in series [3] was “no fit (5 min)”.
On to `OCc1cc(-c2ccccc2OC(F)(F)F)ccc1N1CC[C@H](Oc2ccc(C(F)(F)F)cn2)C1` [Compound 1-161, (S)-(2′-(trifluoromethoxy)-4-(3-(5-(trifluoromethyl)pyridin-2-yloxy)pyrrolidin-1-yl)biphenyl-3-yl)methanol], for which the “Solubility Ringer (nM)” value in series [1] was “BLQ”. Further, in series [2] (setting [4]), the pIC50 was 7.00 to 8.00. Besides, the IC50 in series [2] (setting [5]) came to 93.4 nM. In addition, in series [3], the “hTRPV3 HAMA IC50 (nM) (5 min)” value is “no fit (5 min)”.
For `OCCCc1cc(-c2ccccc2Cl)ccc1N1CC[C@H](Oc2ccc(C(F)(F)F)cn2)C1` [Compound 1-164], in that order: “BLQ”, 6.00 to 7.00, 190 nM and “no fit (5 min)”.
The term solubility denotes how much of the substance goes into solution per volume. In series [1], `Cc1ccccc1-c1ccc(N2CC[C@H](Oc3ncccc3C)C2)c(CO)n1` [Compound 1-179, (S)-(3-(3-(3-methylpyridin-2-yloxy)pyrrolidin-1-yl)-6-o-tolylpyridin-2-yl)methanol] returned a solubility at 40 min above 0.73 µM. The pIC50 in series [2] (setting [4]) and in series [2] (setting [6]) was 6.00 to 7.00 each time. Moreover, the IC50 in series [2] (setting [5]) is 329 nM; in series [2] (setting [7]), around 841 nM. For the same compound, the “hTRPV3 HAMA IC50 (nM) (5 min)” value in series [3] is reported as “no fit (5 min)”.
Take `OCc1ccc(-c2ccccc2)cc1N1CC[C@H](Oc2ccc(C(F)(F)F)cn2)C1` [Compound 1-180, (S)-(3-(3-(5-(trifluoromethyl)pyridin-2-yloxy)pyrrolidin-1-yl)biphenyl-4-yl)methanol]: the solubility at 40 min in series [1] was around 0.2 µM (≈ 0.0829 µg/mL). For the same compound, the pIC50 in series [2] (setting [4]) and in series [2] (setting [6]) was below 6.00 throughout. Further, the IC50 worked out at 1550 nM in series [2] (setting [5]) and 1860 nM in series [2] (setting [7]). Further, in series [3], the “hTRPV3 HAMA IC50 (nM) (5 min)” value is reported as “no fit (5 min) no fit (30 min)”. Moreover, the “hTRPV3 HAMA IC50 (nM) (30 min)” value in series [3] is “no fit (5 min) no fit (30 min)”.
Consider `Cc1ccccc1Oc1ccc(N2CC[C@H](Oc3ccc(C(F)(F)F)cn3)C2)c(CO)n1` [Compound 1-226, (S)-(6-(o-tolyloxy)-3-(3-(5-(trifluoromethyl)pyridin-2-yloxy)pyrrolidin-1-yl)pyridin-2-yl)methanol], for which the pIC50 in series [2] (setting [4]) was 6.00 to 7.00. The IC50 in series [2] (setting [5]) is around 158 nM. Also, in series [3], the “hTRPV3 HAMA IC50 (nM) (5 min)” value was “no fit (5 min) no fit (30 min)” and the “hTRPV3 HAMA IC50 (nM) (30 min)” value is given as “no fit (5 min) no fit (30 min)”.
Take `CCc1ccccc1-c1ccc(CO)c(N2CC[C@H](Oc3ccc(C(F)(F)F)cn3)C2)c1` [Compound 1-227, (S)-(2′-ethyl-3-(3-(5-(trifluoromethyl)pyridin-2-yloxy)pyrrolidin-1-yl)biphenyl-4-yl)methanol]: the pIC50 in series [2] (setting [4]) was 6.00 to 7.00. The IC50 in series [2] (setting [5]) was 200 nM. Besides, in series [3], the “hTRPV3 HAMA IC50 (nM) (5 min)” value was “no fit (5 min) no fit (30 min)” and the “hTRPV3 HAMA IC50 (nM) (30 min)” value was “no fit (5 min) no fit (30 min)”.
Turning to `CCc1ccccc1Oc1ccc(CO)c(N2CC[C@H](Oc3ccc(C(F)(F)F)cn3)C2)c1` [Compound 1-228, (S)-(4-(2-ethylphenoxy)-2-(3-(5-(trifluoromethyl)pyridin-2-yloxy)pyrrolidin-1-yl)phenyl)methanol], the pIC50 in series [2] (setting [4]) is 7.00 to 8.00. In addition, the IC50 in series [2] (setting [5]) was 62.1 nM. For the same compound, in series [3], the “hTRPV3 HAMA IC50 (nM) (5 min)” value was “no fit (5 min) no fit (30 min)” and the “hTRPV3 HAMA IC50 (nM) (30 min)” value is “no fit (5 min) no fit (30 min)”.
As to `Cc1ccccc1Oc1ccc(CO)c(N2CC[C@H](Oc3ccc(C(F)(F)F)cn3)C2)c1` [Compound 1-230, (S)-(4-(o-tolyloxy)-2-(3-(5-(trifluoromethyl)pyridin-2-yloxy)pyrrolidin-1-yl)phenyl)methanol], in series [2] (setting [4]), the pIC50 is 6.00 to 7.00. Moreover, in series [2] (setting [5]), the IC50 was found to be 198 nM. Moreover, in series [3], the “hTRPV3 HAMA IC50 (nM) (5 min)” value is listed as “no fit (5 min) no fit (30 min)” and the “hTRPV3 HAMA IC50 (nM) (30 min)” value is given as “no fit (5 min) no fit (30 min)”.
Take `OCc1ccc(-c2ccccc2Cl)cc1N1CC[C@H](Oc2ncccc2Cl)C1` [Compound 1-234, (S)-(2′-chloro-3-(3-(3-chloropyridin-2-yloxy)pyrrolidin-1-yl)biphenyl-4-yl)methanol]: in series [2] (setting [4]), the pIC50 is 6.00 to 7.00. In addition, the IC50 in series [2] (setting [5]) came out at 737 nM. In series [3], the “hTRPV3 HAMA IC50 (nM) (5 min)” value is on record as “no fit (5 min) no fit (30 min)” and the “hTRPV3 HAMA IC50 (nM) (30 min)” value was “no fit (5 min) no fit (30 min)”.
Turning to `Cc1ccccc1-c1ccc(CO)c(N2CC[C@H](Oc3ccc(C(F)(F)F)cn3)C2)c1` [Compound 1-239, (S)-(2′-methyl-3-(3-(5-(trifluoromethyl)pyridin-2-yloxy)pyrrolidin-1-yl)biphenyl-4-yl)methanol], the pIC50 in series [2] (setting [4]) was 6.00 to 7.00. For the same compound, the IC50 in series [2] (setting [5]) was 607 nM. In series [3], the “hTRPV3 HAMA IC50 (nM) (5 min)” value is listed as “no fit (5 min) no fit (30 min)” and the “hTRPV3 HAMA IC50 (nM) (30 min)” value is recorded as “no fit (5 min) no fit (30 min)”.
Consider `Cc1ccccc1-c1ccc(CO)c(N2CC[C@H](Oc3ncccc3Cl)C2)c1` [Compound 1-240, (S)-(3-(3-(3-chloropyridin-2-yloxy)pyrrolidin-1-yl)-2′-methylbiphenyl-4-yl)methanol], for which the pIC50 in series [2] (setting [4]) was 6.00 to 7.00. The IC50 in series [2] (setting [5]) was 934 nM. In addition, in series [3], the “hTRPV3 HAMA IC50 (nM) (5 min)” value was “no fit (5 min) no fit (30 min)” and the “hTRPV3 HAMA IC50 (nM) (30 min)” value is listed as “no fit (5 min) no fit (30 min)”.

The record behind these values is patent publication US12435061B2 (priority 2020, dated 2025).
